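48-hour exposure; five concentrations; linearly interpolated endpoints. TGI denotes the concentration required for complete inhibition of growth.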
Key:
Assay in all cases: DTP human tumour cell line panel, 48 h
786-0 renal = system: 786-0 renal
A549 NSCLC = system: A549 NSCLC
CAKI-1 renal = system: CAKI-1 renal
HT29 colon = system: HT29 colon
IGROV1 ovarian = system: IGROV1 ovarian
MOLT-4 leukemia = system: MOLT-4 leukemia
SF-295 CNS = system: SF-295 CNS
SW-620 colon = system: SW-620 colon

CCc1ccccc1NC(=O)CCc1nc(=S)[nH][nH]1
TGI (786-0 renal): > 100 µM
TGI (A549 NSCLC): > 100 µM
TGI (CAKI-1 renal): > 100 µM
TGI (HT29 colon): > 100 µM
TGI (IGROV1 ovarian): > 100 µM
TGI (MOLT-4 leukemia): > 100 µM
TGI (SF-295 CNS): > 100 µM
TGI (SW-620 colon): > 100 µM

COc1ccccc1NC(=O)CC(=O)n1nc(C)c(N=Nc2ccccc2F)c1C
TGI (786-0 renal): > 100 µM
TGI (A549 NSCLC): > 100 µM
TGI (CAKI-1 renal): > 100 µM
TGI (HT29 colon): > 100 µM
TGI (IGROV1 ovarian): > 100 µM
TGI (MOLT-4 leukemia): > 31.6 µM
TGI (SF-295 CNS): > 100 µM
TGI (SW-620 colon): > 100 µM

O=C(CC(=O)Nc1ccc(Cl)cc1)NNCC(=O)Nc1nc(-c2ccccc2)cs1
TGI (786-0 renal): > 100 µM
TGI (A549 NSCLC): > 100 µM
TGI (HT29 colon): > 100 µM
TGI (IGROV1 ovarian): > 100 µM
TGI (MOLT-4 leukemia): > 100 µM
TGI (SF-295 CNS): > 100 µM
TGI (SW-620 colon): > 100 µM

CCNC(=O)C(O)C1(O)CCC2[C@@H]3CCC4=CC(=O)C=C[C@]4(C)C3[C@@H](O)C[C@@]21C (stereo partly drawn)
TGI (786-0 renal): > 100 µM
TGI (A549 NSCLC): > 100 µM
TGI (CAKI-1 renal): > 100 µM
TGI (HT29 colon): > 100 µM
TGI (IGROV1 ovarian): > 100 µM
TGI (MOLT-4 leukemia): > 100 µM
TGI (SF-295 CNS): > 100 µM
TGI (SW-620 colon): > 100 µM

Cc1ccccc1C(C#N)/C(=N/NC(=O)c1cc2ccccc2cc1O)C(=O)Nc1cccc(Cl)c1 (stereo not drawn)
TGI (786-0 renal): > 100 µM
TGI (A549 NSCLC): > 100 µM
TGI (CAKI-1 renal): > 100 µM
TGI (HT29 colon): > 100 µM
TGI (IGROV1 ovarian): 65.3 µM
TGI (MOLT-4 leukemia): > 100 µM
TGI (SF-295 CNS): > 100 µM
TGI (SW-620 colon): > 100 µM

COC(=O)c1nc(-c2ccc(Cl)c(Cl)c2)nc2ccccc12
TGI (786-0 renal): 47.8 µM
TGI (A549 NSCLC): > 100 µM
TGI (CAKI-1 renal): > 100 µM
TGI (HT29 colon): > 100 µM
TGI (IGROV1 ovarian): > 100 µM
TGI (MOLT-4 leukemia): > 100 µM
TGI (SF-295 CNS): > 31.1 µM
TGI (SW-620 colon): > 100 µM

COc1ccc2[nH]c3c(cnn4cnnc34)c2c1
TGI (786-0 renal): > 100 µM
TGI (A549 NSCLC): > 100 µM
TGI (CAKI-1 renal): > 100 µM
TGI (HT29 colon): > 100 µM
TGI (IGROV1 ovarian): > 100 µM
TGI (MOLT-4 leukemia): > 100 µM
TGI (SF-295 CNS): > 100 µM
TGI (SW-620 colon): > 100 µM

C/C(=N\NC(=S)N(C)C)c1ncc[nH]1
TGI (786-0 renal): 5.67 µM
TGI (A549 NSCLC): > 100 µM
TGI (HT29 colon): > 100 µM
TGI (IGROV1 ovarian): 7.71 µM
TGI (MOLT-4 leukemia): 24 µM
TGI (SF-295 CNS): > 100 µM
TGI (SW-620 colon): > 100 µM

CC(=O)/C=C1/c2ccccc2N(C(C)=O)C1O (stereo not drawn)
TGI (786-0 renal): > 100 µM
TGI (A549 NSCLC): > 100 µM
TGI (CAKI-1 renal): > 100 µM
TGI (HT29 colon): > 100 µM
TGI (IGROV1 ovarian): > 100 µM
TGI (MOLT-4 leukemia): > 100 µM
TGI (SF-295 CNS): > 100 µM
TGI (SW-620 colon): > 100 µM

CCCOc1ccc(/C=C\c2cc(OC)c(OC)c(OC)c2)cc1
TGI (786-0 renal): > 100 µM
TGI (A549 NSCLC): > 100 µM
TGI (CAKI-1 renal): > 100 µM
TGI (HT29 colon): > 100 µM
TGI (IGROV1 ovarian): > 100 µM
TGI (SF-295 CNS): > 100 µM
TGI (SW-620 colon): > 100 µM

Cc1cc2c(cn1)C(=O)OCC2
TGI (786-0 renal): > 100 µM
TGI (A549 NSCLC): > 100 µM
TGI (HT29 colon): > 100 µM
TGI (IGROV1 ovarian): > 100 µM
TGI (MOLT-4 leukemia): > 100 µM
TGI (SF-295 CNS): > 100 µM
TGI (SW-620 colon): > 100 µM

CCCOc1ccc(/C=C/c2cc(OC)c(OC)c(OC)c2)cc1
TGI (786-0 renal): > 56.3 µM
TGI (A549 NSCLC): > 100 µM
TGI (CAKI-1 renal): 37.6 µM
TGI (HT29 colon): 3.93 µM
TGI (IGROV1 ovarian): > 100 µM
TGI (MOLT-4 leukemia): 13.2 µM
TGI (SF-295 CNS): 1.06 µM
TGI (SW-620 colon): > 100 µM

CCOC(=O)/C(C#N)=C(O)/C(=C/c1ccccc1Cl)NC(=O)c1ccccc1
TGI (786-0 renal): > 100 µM
TGI (A549 NSCLC): > 100 µM
TGI (CAKI-1 renal): > 100 µM
TGI (HT29 colon): > 100 µM
TGI (IGROV1 ovarian): > 100 µM
TGI (MOLT-4 leukemia): > 100 µM
TGI (SF-295 CNS): > 100 µM
TGI (SW-620 colon): 52.2 µM

CN1C(c2ccccc2)CC(=Nc2ccccc2)CC1c1ccccc1 (stereo not drawn)
TGI (786-0 renal): 27.7 µM
TGI (A549 NSCLC): 44.9 µM
TGI (CAKI-1 renal): 42.3 µM
TGI (HT29 colon): 34.2 µM
TGI (IGROV1 ovarian): 38.4 µM
TGI (MOLT-4 leukemia): 28.7 µM
TGI (SF-295 CNS): 31.1 µM
TGI (SW-620 colon): 22.9 µM

Cc1cccc(C(C)(C)C)c1NC(=O)CC1C(=O)Nc2ccccc2S1=O (stereo not drawn)
TGI (786-0 renal): > 100 µM
TGI (A549 NSCLC): > 100 µM
TGI (CAKI-1 renal): > 100 µM
TGI (HT29 colon): > 100 µM
TGI (MOLT-4 leukemia): 69.2 µM
TGI (SF-295 CNS): > 100 µM
TGI (SW-620 colon): > 100 µM

N=C(c1ccccc1)N1CCCCC1
TGI (786-0 renal): > 100 µM
TGI (A549 NSCLC): > 100 µM
TGI (CAKI-1 renal): > 100 µM
TGI (HT29 colon): > 100 µM
TGI (SF-295 CNS): > 100 µM
TGI (SW-620 colon): > 100 µM

CC(C)=CC(=O)Cc1nc2ccccc2[nH]c1=O
TGI (786-0 renal): > 100 µM
TGI (A549 NSCLC): > 100 µM
TGI (CAKI-1 renal): > 100 µM
TGI (HT29 colon): > 100 µM
TGI (IGROV1 ovarian): > 100 µM
TGI (MOLT-4 leukemia): > 100 µM
TGI (SF-295 CNS): > 100 µM
TGI (SW-620 colon): > 100 µM

C/C(=N\NC(N)=S)c1ccc(/C(C)=N/NC(N)=S)cc1
TGI (786-0 renal): > 100 µM
TGI (A549 NSCLC): > 100 µM
TGI (HT29 colon): > 100 µM
TGI (IGROV1 ovarian): > 100 µM
TGI (MOLT-4 leukemia): > 100 µM
TGI (SF-295 CNS): > 100 µM
TGI (SW-620 colon): > 100 µM

O=[N+]([O-])c1ccc(Cc2nc3ccccc3s2)cc1
TGI (786-0 renal): > 100 µM
TGI (A549 NSCLC): > 100 µM
TGI (CAKI-1 renal): > 100 µM
TGI (HT29 colon): > 100 µM
TGI (IGROV1 ovarian): > 100 µM
TGI (MOLT-4 leukemia): > 100 µM
TGI (SF-295 CNS): > 100 µM
TGI (SW-620 colon): > 100 µM

C/C(=N\NC(N)=S)c1ccc2c(c1)OCO2
TGI (786-0 renal): > 100 µM
TGI (A549 NSCLC): > 100 µM
TGI (CAKI-1 renal): > 100 µM
TGI (HT29 colon): > 100 µM
TGI (IGROV1 ovarian): > 100 µM
TGI (MOLT-4 leukemia): > 100 µM
TGI (SF-295 CNS): > 100 µM
TGI (SW-620 colon): > 100 µM

COc1ccc(C2(CN(C)C)COc3cc(OC)c(OC)cc3C2=O)cc1OC (stereo not drawn)
TGI (786-0 renal): > 100 µM
TGI (A549 NSCLC): > 100 µM
TGI (CAKI-1 renal): > 100 µM
TGI (HT29 colon): > 100 µM
TGI (IGROV1 ovarian): > 100 µM
TGI (MOLT-4 leukemia): > 100 µM
TGI (SF-295 CNS): > 100 µM
TGI (SW-620 colon): 45.8 µM

Clc1ccc(C2=Nc3ccccc3SC(c3ccc(Cl)c(Cl)c3)C2)c(Cl)c1 (stereo not drawn)
TGI (786-0 renal): 27.6 µM
TGI (A549 NSCLC): 43.6 µM
TGI (CAKI-1 renal): 29.6 µM
TGI (HT29 colon): 28.5 µM
TGI (IGROV1 ovarian): 30.7 µM
TGI (MOLT-4 leukemia): 18.1 µM
TGI (SF-295 CNS): 17 µM
TGI (SW-620 colon): 18.9 µM

Source: PubChem BioAssay (NCI)
